These results are taken from ChEMBL document CHEMBL4138172, “Synthesis of bis-indolylmethanes as new potential inhibitors of β-glucuronidase and their molecular docking studies” (Eur J Med Chem, 2018).

One may read the pIC50 as −log10 of the IC50, conventionally taken in molar units. Read a low pIC50 as a high IC50.

pIC50: −log10 of the molar value.

The target in the assay is T1, Beta-glucuronidase (Homo sapiens, UniProt P08236).
T1 sequence (P08236 whole entry): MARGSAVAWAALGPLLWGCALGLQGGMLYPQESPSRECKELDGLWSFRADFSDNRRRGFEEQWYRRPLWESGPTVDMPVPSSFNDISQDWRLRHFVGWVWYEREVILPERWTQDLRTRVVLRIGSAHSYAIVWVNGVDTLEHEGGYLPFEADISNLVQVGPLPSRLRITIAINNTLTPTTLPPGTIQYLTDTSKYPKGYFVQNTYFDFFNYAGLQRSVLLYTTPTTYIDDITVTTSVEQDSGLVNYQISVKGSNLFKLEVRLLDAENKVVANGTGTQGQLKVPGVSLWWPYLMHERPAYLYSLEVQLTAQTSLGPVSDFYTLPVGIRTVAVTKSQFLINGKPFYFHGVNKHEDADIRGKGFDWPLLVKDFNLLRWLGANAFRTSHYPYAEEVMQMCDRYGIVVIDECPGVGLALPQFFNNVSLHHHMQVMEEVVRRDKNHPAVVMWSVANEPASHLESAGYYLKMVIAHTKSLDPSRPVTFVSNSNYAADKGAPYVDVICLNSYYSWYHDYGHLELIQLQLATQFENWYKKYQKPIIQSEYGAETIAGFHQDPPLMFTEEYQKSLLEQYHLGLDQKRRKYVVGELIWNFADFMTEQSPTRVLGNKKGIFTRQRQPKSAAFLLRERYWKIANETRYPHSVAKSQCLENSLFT
As to the kind of experiment: Inhibition of human beta-glucuronidase.
The compound `Cc1ccc(C(c2c[nH]c3ccc(C(=O)N/N=C/c4ccccn4)cc23)c2c[nH]c3ccc(C(=O)N/N=C/c4ccccn4)cc23)cc1` had a pIC50 of 4.88. As to `Cc1ccc(/C=N/NC(=O)c2ccc3[nH]cc(C(c4ccc(C)cc4)c4c[nH]c5ccc(C(=O)N/N=C/c6ccc(C)cc6)cc45)c3c2)cc1`, the pIC50 is 4.90.

Compound `Cc1ccc(C(c2c[nH]c3ccc(C(=O)N/N=C/c4cc(O)ccc4O)cc23)c2c[nH]c3ccc(C(=O)N/N=C/c4cc(O)ccc4O)cc23)cc1` gave a pIC50 of 5.94. The compound `Cc1ccc(C(c2c[nH]c3ccc(C(=O)N/N=C/c4cccc(O)c4)cc23)c2c[nH]c3ccc(C(=O)N/N=C/c4cccc(O)c4)cc23)cc1` showed a negative-log IC50 (pIC50) of 5.23. As for `Cc1ccc(C(c2c[nH]c3ccc(C(=O)N/N=C/c4ccccc4C)cc23)c2c[nH]c3ccc(C(=O)N/N=C/c4ccccc4C)cc23)cc1`, the figure is 4.65; as for `Cc1ccc(C(c2c[nH]c3ccc(C(=O)N/N=C/c4cccc([N+](=O)[O-])c4)cc23)c2c[nH]c3ccc(C(=O)N/N=C/c4cccc([N+](=O)[O-])c4)cc23)cc1`, 5.12. The figure for `COc1ccc(O)c(/C=N/NC(=O)c2ccc3[nH]cc(C(c4ccc(C)cc4)c4c[nH]c5ccc(C(=O)N/N=C/c6cc(OC)ccc6O)cc45)c3c2)c1` is 5.68; for `Cc1ccc(C(c2c[nH]c3ccc(C(=O)N/N=C/c4ccccc4[N+](=O)[O-])cc23)c2c[nH]c3ccc(C(=O)N/N=C/c4ccccc4[N+](=O)[O-])cc23)cc1` it is 4.31. `Cc1ccc(C(c2c[nH]c3ccc(C(=O)N/N=C/c4cccnc4)cc23)c2c[nH]c3ccc(C(=O)N/N=C/c4cccnc4)cc23)cc1` gave a pIC50 of 4.48. Compound `Cc1ccc(C(c2c[nH]c3ccc(C(=O)N/N=C/c4cccc(Cl)c4)cc23)c2c[nH]c3ccc(C(=O)N/N=C/c4cccc(Cl)c4)cc23)cc1` gave a pIC50 of 5.16. As for `Cc1ccc(C(c2c[nH]c3ccc(C(=O)N/N=C/c4ccc(Cl)cc4)cc23)c2c[nH]c3ccc(C(=O)N/N=C/c4ccc(Cl)cc4)cc23)cc1`, the figure is 5.24; as for `COc1ccc(/C=N/NC(=O)c2ccc3[nH]cc(C(c4ccc(C)cc4)c4c[nH]c5ccc(C(=O)N/N=C/c6ccc(OC)cc6)cc45)c3c2)cc1`, 4.48. Turning to `Cc1ccc(C(c2c[nH]c3ccc(C(=O)N/N=C/c4ccc(F)c(Br)c4)cc23)c2c[nH]c3ccc(C(=O)N/N=C/c4ccc(F)c(Br)c4)cc23)cc1`, the pIC50 was 4.80.

The compound `Cc1ccc(C(c2c[nH]c3ccc(C(=O)N/N=C/c4ccc(O)cc4)cc23)c2c[nH]c3ccc(C(=O)N/N=C/c4ccc(O)cc4)cc23)cc1` showed a pIC50 of 5.63. `COc1ccc(/C=N/NC(=O)c2ccc3[nH]cc(C(c4ccc(C)cc4)c4c[nH]c5ccc(C(=O)N/N=C/c6ccc(OC)c(O)c6I)cc45)c3c2)c(I)c1O` showed a pIC50 of 4.36. As for `Cc1ccc(C(c2c[nH]c3ccc(C(=O)N/N=C/c4cc(O)c(O)cc4O)cc23)c2c[nH]c3ccc(C(=O)N/N=C/c4cc(O)c(O)cc4O)cc23)cc1`, the negative logarithm of the IC50 (pIC50) is 7.00. The compound `COc1ccc(/C=N/NC(=O)c2ccc3[nH]cc(C(c4ccc(C)cc4)c4c[nH]c5ccc(C(=O)N/N=C/c6ccc(OC)c(O)c6)cc45)c3c2)cc1O` showed a pIC50 of 5.57. In the case of `Cc1ccc(C(c2c[nH]c3ccc(C(=O)N/N=C/c4ccccc4F)cc23)c2c[nH]c3ccc(C(=O)N/N=C/c4ccccc4F)cc23)cc1`, the pIC50 was 5.92. Compound `Cc1ccc(C(c2c[nH]c3ccc(C(=O)N/N=C/c4cccc(O)c4O)cc23)c2c[nH]c3ccc(C(=O)N/N=C/c4cccc(O)c4O)cc23)cc1` showed a pIC50 of 7.00.

In turn, `COc1ccc(/C=N/NC(=O)c2ccc3[nH]cc(C(c4ccc(C)cc4)c4c[nH]c5ccc(C(=O)N/N=C/c6ccc(OC)cc6O)cc45)c3c2)c(O)c1` showed a pIC50 of 5.46. As for `Cc1ccc(C(c2c[nH]c3ccc(C(=O)N/N=C/c4cccc(C)c4)cc23)c2c[nH]c3ccc(C(=O)N/N=C/c4cccc(C)c4)cc23)cc1`, the figure is 4.47; as for `Cc1ccc(C(c2c[nH]c3ccc(C(=O)N/N=C/c4ccccc4)cc23)c2c[nH]c3ccc(C(=O)N/N=C/c4ccccc4)cc23)cc1`, 4.37; as for `Cc1ccc(C(c2c[nH]c3ccc(C(=O)N/N=C/c4ccc(Cl)cc4Cl)cc23)c2c[nH]c3ccc(C(=O)N/N=C/c4ccc(Cl)cc4Cl)cc23)cc1`, 5.96. Compound `Cc1ccc(C(c2c[nH]c3ccc(C(=O)N/N=C/C=C/c4ccccc4)cc23)c2c[nH]c3ccc(C(=O)N/N=C/C=C/c4ccccc4)cc23)cc1` gave a pIC50 of 5.53. Take `Cc1ccc(C(c2c[nH]c3ccc(C(=O)N/N=C/c4ccc(O)cc4O)cc23)c2c[nH]c3ccc(C(=O)N/N=C/c4ccc(O)cc4O)cc23)cc1`: the pIC50 is 6.52. For `Cc1ccc(C(c2c[nH]c3ccc(C(=O)N/N=C/c4ccc(O)c(O)c4)cc23)c2c[nH]c3ccc(C(=O)N/N=C/c4ccc(O)c(O)c4)cc23)cc1`, the pIC50 is 6.52.

`Cc1ccc(C(c2c[nH]c3ccc(C(=O)N/N=C/c4ccncc4)cc23)c2c[nH]c3ccc(C(=O)N/N=C/c4ccncc4)cc23)cc1` had a pIC50 of 4.63. In the case of `Cc1ccc(C(c2c[nH]c3ccc(C(=O)N/N=C/c4ccccc4Cl)cc23)c2c[nH]c3ccc(C(=O)N/N=C/c4ccccc4Cl)cc23)cc1`, the pIC50 is 5.55. The compound `Cc1ccc(C(c2c[nH]c3ccc(C(=O)N/N=C/c4cccc(F)c4)cc23)c2c[nH]c3ccc(C(=O)N/N=C/c4cccc(F)c4)cc23)cc1` had a pIC50 of 5.66. Compound `Cc1ccc(C(c2c[nH]c3ccc(C(=O)N/N=C/c4ccc(F)cc4)cc23)c2c[nH]c3ccc(C(=O)N/N=C/c4ccc(F)cc4)cc23)cc1` had a negative logarithm of the IC50 (pIC50) of 5.55.

`Cc1ccc(C(c2c[nH]c3ccc(C(=O)N/N=C/c4ccccc4O)cc23)c2c[nH]c3ccc(C(=O)N/N=C/c4ccccc4O)cc23)cc1`: the pIC50 was 5.82. Take `Cc1ccc(C(c2c[nH]c3ccc(C(=O)N/N=C/c4c(O)cc(O)cc4O)cc23)c2c[nH]c3ccc(C(=O)N/N=C/c4c(O)cc(O)cc4O)cc23)cc1`: the pIC50 was 6.70.
